Assay [1] concerns T-cells. In words: Proliferation of T-lymphocytes (3H-thymidine) in anti-CD3/anti-CD28 activated splenocytes. Conditions: Mus musculus, T-cell, 72 h; drug 10 μM, vs activated splenocytes; read-out: mean reduction of 3H-thymidine incorporation (T-cell proliferation). Format: cell-based, mouse. As for the experimental part:
A previously published protocol was used for isolating and activating T-cells (Keough et al., Nature Comm 7:11312, 2016). Spleens from female C57B16 mice were harvested and after mechanical dissociation the cell suspension was passed through a 70 μm cell strainer and separated by Ficoll gradient (1800 RPM, 30 min). Splenocytes were plated (2.5×10^5 cells in 100 μl/well) in anti-CD3 antibody coated 96-well plates (1,000 ng m1^−1 plate-bound anti-CD3 and 1,000 ng m1^−1 anti-CD28 suspended in media) to activate T-cells. Directly before plating, wells were treated with respective drugs in a final concentration of 10 μM. Cells were cultured in RPMI 1640 medium, supplemented with 10% FBS, 1 μM sodium pyruvate, 2 mM L-alanyl-L-glutamine, 1% penicillin/streptomycin, 1% HEPES and 0.05 mM 2-mercaptoethanol (all supplements were from Invitrogen). After 48 h, ^3H-thymidine was added in a concentration of 1 μCi per well, and cells were harvested after 24 h on filter mats. Mats were then evaluated for radioactivity (counts per minute) using a liquid scintillation counter.
On the technique in general: Dividing cells build labelled thymidine or BrdU into new DNA.

For assay [2], the system named is Biozzi ABH mice. In words: Chronic EAE in Biozzi ABH mice (spinal cord homogenate). The class given is in vivo, mouse. Conditions: treatment from onset of clinical signs.
Assay [3] deals with C57BL/6 mice. In words: MOG-EAE in C57BL/6 mice, clinical score. The class given is in vivo, mouse.
Assay [4] concerns T-lymphocytes. The assay can be described thus: Cell cycle analysis of activated splenocytes by flow cytometry (propidium iodide). Format: cell-based, mouse. The method, then:
Two days after activation and drug treatment splenocytes were harvested, washed with PBS followed by resuspension in PBS with 2% FBS. Cell cycle analysis was performed taking advantage of propidium iodide staining (50 μg/ml) using an established protocol (Besson and Yong, 2000). Cells were washed in cold PBS and resuspended in PI/Triton X-100 staining solution (10 ml 0.1% (v/v) Triton X-100 in PBS with 2 mg DNAse-free RNAse A and 0.4 ml of 500 μg/ml PI), followed by incubation at 4° C. for 30 min. Stained cells were analyzed on a FACSCalibur™ with the software CellQuest™ (BD Biosciences). Cell cycle analysis was conducted using the software ModFit LT, version 3.3 (Verity Software House Inc.).
Cells were identified by gating into the lymphocyte population, followed by single cell gating to exclude doublets and aggregates. This was followed by identification of the G0/G1 population and processing with the software ModFit LT, version 3.3 (Verity Software House Inc.) to calculate the percentage of cells in different cell cycles.

The test system of assay [5] is C57BL/6 mice. In words: Histological analyses of the spinal cord of EAE mice (HE/LFB, Iba1, Bielschowsky). Format: in vivo, mouse. Conditions: 25 mg/kg IP from day 0. The source says: Spinal cords and cerebella were removed. […] Cervical and lumbar cords were snap frozen.
Assay [6] in a line: Hydroxyl radical antioxidant capacity (HORAC) assay. The class given is biochemical. Conditions: vs 12.5 μM gallic acid (=1), 60 min. The method, then:
In this assay, hydroxyl radicals generated by a Co(II)-mediated Fenton-like reaction oxidize fluorescein causing loss of fluorescence (Ou et al., J Argricultural Food Chemistry 50:2772-2777, 2002). The presence of an anti-oxidant reduces the loss of fluorescence and this can be monitored every 5 min over a period of 60 min with a Spectra Max Gemini XS plate reader (Molecular Devices, Sunnyvale, Calif., USA) and the software SoftMax Pro version 5. For monitoring fluorescence, we used an excitation wavelength of λ=485 nm and an emission wavelength of λ=520 nm.
The biochemical cell free hydroxyl radical antioxidant capacity (HORAC) assay investigates the prevention of hydroxyl radical mediated oxidation of to fluorescein in comparison to the strong anti-oxidant gallic acid. The generation of hydroxyl radicals by a cobalt-driven Fenton-like reaction oxidizes fluorescein with progressive loss of fluorescence. The presence of an anti-oxidant reduces the loss of fluorescence over time.
We compared the area under the curve of test compounds to that elicited by gallic acid to obtain the gallic acid equivalent (GAE).

The subject of assay [7] is B-cells. The assay can be described thus: Proliferation of activated B-cells (3H-thymidine). Conditions: BCR/anti-CD40L/IL-4 activation. The class given is cell-based, human. The method, then: Venous blood from healthy volunteers was obtained and peripheral blood mononuclear cells (PBMCs) were isolated by Ficoll gradient centrifugation (1800 RPM, 30 min). From PBMCs, B-cells were isolated by positive selection with CD19 directed microbeads (Stemcell Technologies). Purity was assessed by FACS after staining for CD19 (Stemcell Technologies). Cells were plated in a concentration of 2.5×10^5 cells/well in X-VIVO™ medium (Lonza) supplemented with 1% penicillin/streptomycin and 1% Glutamax and treated with drugs for 1 h. […] Medium as well as respective drugs were re-added followed by application of ^3H-thymidine in a concentration of 1 μCi per well to investigate proliferation.

For assay [8], the system named is human neurons. In words: Mitochondrial damage to neurons induced by rotenone. Conditions: rotenone 10 μM, drug 10 μM. The class given is cell-based. The method, then: Human neurons were isolated from brain tissues of therapeutically aborted 15-20 week old fetuses, in accordance with ethics approval of the University of Calgary ethics committee, after written informed consent of the pregnant donors. Neurons were isolated as previously described (Vecil et al., 2000) brain specimens were washed in phosphate buffered saline (PBS) to remove blood, followed by removal of meninges. […] Thereafter, the digestion was stopped by addition of 4 ml fetal calf serum (FCS). The solution was filtered through a 132 μm filter and centrifuged (three times, 1,200 rpm, 10 min). Cells were cultured in feeding medium of minimal essential medium (MEM) supplemented with 10% fetal bovine serum (FBS), 1 μM sodium pyruvate, 10 μM glutamine, 1× non-essential amino acids, 0.1% dextrose and 1% penicillin/streptomycin (all culture supplements from Invitrogen, Burlington, Canada). […] For experiments, the neuron-enriched cultures were retrypsinized and cells were plated in poly-L-ornithine pre-coated 96-well plates at a density of 100,000 cells/well in 100 μl of the complete medium supplemented with cytosine arabinoside. […] All conditions were performed in quadruplicates. A day later cells were fixed using 4% paraformaldehyde (PFA) and stored in PBS in 4° C.
The iron stock solution was prepared using 27.8 mg iron(II) sulfate heptahydrate (FeSO4) (Sigma-Aldrich, Oakville, Canada), 10 μl of 17.8M sulfuric acid and 10 ml deionized distilled water. After filtering with a 0.2 μm filter, FeSO4 was added to cells in a final concentration of 25-50 μM in a volume of 50 μl medium to the cells. Rotenone was dissolved in dimethyl sulfoxide (DMSO) and used in a final concentration of 10 μM.

[9] abbreviates: 25 mg/kg IP from onset of clinical signs (day 13).

Structures can show the parent of a compound that is named as a salt.

Take `CN(C)CCCN1c2ccccc2CCc2ccc(Cl)cc21` [CLOMIPRAMINE HYDROCHLORIDE]: the inhibition at 10 µM in assay [1] came to 68.2%. Besides, the “clinical severity in chronic EAE” value in assay [2] is “reduced clinical severity”. Also, in assay [3] (25 mg/kg IP from day 0 (day of MOG induction)), the “manifestations of clinical signs” value is on record as “completely suppressed”. Also, the “delay of onset of clinical signs” value in assay [3] (25 mg/kg IP from day 5 after induction) stood at 2 days. Moreover, in assay [3] (setting [9]), the “clinical disability of first relapse, days 14-20” value is “attenuated the marked rise in clinical disability” and the “second increase in clinical scores, days 42-50” value is reported as “prevented”. Besides, the “severity of the second relapse” value in assay [3] (25 mg/kg IP from remission after first relapse (day 31)) was “did not affect the severity of the second relapse”. Further, the “concentration from which cell cycle arrest is seen (more cells in G1, less in S-phase)” value in assay [4] turned out to be 2 µM. Further, in assay [5], the “axonal damage (Bielschowsky stain)” value is listed as “significantly less axonal damage”, the “histological score of the spinal cord (inflammation)” value amounted to 1.7 and the “microglial activation (Iba1 staining)” value is reported as “prevented microglial activation”. For the same compound, the “mean HORAC-GAE (gallic acid equivalents)” value in assay [6] was 2.1. Further, the “concentration from which proliferation of activated B-cells is reduced” value in assay [7] was determined as 2 µM. Further, in assay [8], the “neurotoxicity by rotenone (mitochondrial damage)” value is reported as “trended towards a protective activity”.
